Laboratory results as given in patent publication US11135202B2, “Thiazolide compounds for treating viral infections” (Romark Laboratories L.C., priority 2016, dated 2021).
Values after ≈ are worked out from the molar mass of the structure shown.

How the values were obtained:
RSV-A2 = RSV-A2 yield in infected HeLa cells (virus-induced syncytia counted by immunofluorescence); format: cell-based
Sendai virus (SeV) [1] = assay: SeV virus yield in AGMK cells (HA titration, plaque assay; MTT viability; cytopathic effect); format: cell-based
Sendai virus (SeV) [2] = format: cell-based
[3] = system: respiratory syncytial virus; assay: Study RM08-3002 clinical trial, time to alleviation of symptoms, RSV patients; conditions: human, in vivo

Compound: CC(=O)Oc1ccccc1C(=O)Nc1ncc([N+](=O)[O-])s1 [nitazoxanide]
- IC50 (RSV-A2; human respiratory syncytial virus, HeLa cells, MOI 1 TCID50/cell, syncytia at 48 hours p.i., non cytotoxic doses, read-out: IC50, antiviral activity against RSV-A2): 0.3 µg/mL (≈ 0.976 µM)
- IC90 (RSV-A2; human respiratory syncytial virus, HeLa cells, MOI 1 TCID50/cell, syncytia at 48 hours p.i., non cytotoxic doses, read-out: IC90, antiviral activity against RSV-A2): 0.8 µg/mL (≈ 2.6 µM)
- effect of treatment against RSV (RSV-A2; in vitro): effective against RSV
- protection of infected cells from virus-induced damage (Sendai virus (SeV) [1]; SeV 3 PFU/cell, 10 μg/ml, 24 h p.i.): cytoprotective
- inhibition of SeV replication (Sendai virus (SeV) [1]; at concentrations non-toxic for the host cells): effective
- inhibition of SeV in A549 cells (Sendai virus (SeV) [2]): also effective
- reduction in duration of symptoms at the median vs placebo [3]: 76 h
